Assay: Stability of the isolated free acid on standing at room temperature
Assay type: physicochemical
Conditions: isolated free acid (oil)
Method: To a solution of o-phosphonooxymethylpropofol dibenzyl ester (115 mg, 0.245 mmol) in methanol (10 mL) was added palladium on carbon (10%, 20 mg). This mixture was stirred under an atmosphere of hydrogen (1 atm) for 1.5 hour.
To a solution of O-phosphonooxymethyl-alpha-tocopherol dibenzyl ester (88 mg, 0.12 mmol) in tetrahydrofuran (10 mL) was added palladium on carbon (10%, 15 mg). The mixture was stirred under an atmosphere of hydrogen (1 atm) for 10 minutes (the reaction was complete after 5 minutes as judged by TLC). The catalyst was removed by filtration through Celite, the filtrate was evaporated at reduced pressure, and then dried in vacuo.

| Structure (SMILES) | stability at room temperature |
| --- | --- |
| Cc1c(C)c2c(c(C)c1OCOP(=O)(O)O)CCC(C)(CCCC(C)CCCC(C)CCCC(C)C)O2 (stereo not drawn) [IIb, O-phosphonooxymethyl-alpha-tocopherol] | unstable at room temperature |
| CC(C)c1cccc(C(C)C)c1OCOP(=O)(O)O [Id, O-phosphonooxymethylpropofol] | unstable on standing at room temperature |

— patent publication US7244718B2, “Water soluble prodrugs of hindered alcohols” (University of Kansas, priority 1998, dated 2007)
